Here are results for two compounds from publication PMC11016601, “Exploring the bioaccessibility and intestinal absorption of major classes of pure phenolic compounds using in vitro simulated gastrointestinal digestion” (Heliyon, 2024).

The nature of series [1]: In vitro simulated gastrointestinal digestion (SGD, INFOGEST 2.0): concentration and bioaccessibility by UHPLC-DAD-MSn. The note with it: for Bioaccessibility (%), initial solution (IS): reference. Here is the method:
Preliminary solubility tests in different solvents, namely water, sodium phosphate buffer (26.8 mM, pH 6.1), ethanol, and also a mixture of ethanol with both water and sodium phosphate buffer, were carried out for each PC (data not shown), to prevent erroneous data arising from compounds precipitation. Ethanol percentages used in these preliminary solubility tests were 10, 15, and 20% (v/v).
Each PC solubilized in ethanol:water (15% v/v) was then submitted to an in vitro SGD (INFOGEST 2.0), according to a standardized protocol (Fig. 2). In order to determine whether the interaction between the compounds and enzymes led to an underestimation of their content, each PC solution was submitted to the same digestion procedure, replacing the enzyme solutions with water, which were designed as controls, henceforth this will be the term used. Each sample and control were submitted to three independent in vitro digestion simulations, and after each digestion phase, a sample/control was collected and further analyzed and quantified by UHPLC-DAD-MSn.
(§1) Mouth digestion of each PC solution (1 mL) was diluted in 0.8 mL of simulated salivary fluid (SSF) and α-amylase (75 U mL-1). Then, the mixture was incubated for 2 min at 37 °C under agitation (200 rpm). In order to start gastric digestion, pH was adjusted to 3.0 using 1 M aqueous HCl and then, a pepsin solution (2000 U mL-1) and simulated gastric fluid (SGF) were added. Subsequently, the mixture was incubated for 2h, at 37 °C and 130 rpm orbital agitation for the stomach digestion. Finally, the small intestine digestion simulation was performed after pH adjustment to 7.0 using 1 M aqueous […] and the addition of pancreatin (100 U mL-1), bile salts solution (10 mM) and simulated intestinal fluid (SIF), during 2 h, at 37 °C with 45 rpm orbital agitation. Natural small intestine absorption was also simulated, by placing the remaining sample in a dialysis membrane, and immersed in distilled water overnight at room temperature.
At each sampling point, an aliquot (0.5 mL) from each of the three replicates was collected. The enzymatic activity was stopped immediately by adding pure methanol to each aliquot (1:1, v/v) to promote enzyme precipitation and subsequently centrifuged at 10 000 g and 4 °C for 5 min. The supernatants were filtered with a 0.2 μm nylon filter. To determine the concentration of each sample or control, it was considered the following dilution factor – 1:2, 1:4 and 1:8 for oral, gastric and intestinal digestion phase, respectively.
The bioaccessibility percentage (B%) of each PC was calculated using equation (1):(1) B(%)=[DS]/[IS]×100 where IS is the initial concentration of PCs in ethanol:water (15% v/v) solutions, DS is the concentration of each collected sample or control (without enzymes).
(§2) The values of B% and IA% were the average of the three replicates performed, with the calculated standard deviation.
PCs were analyzed in a UHPLC system equipped with a variable loop Accela autosampler (set at 16 °C), an Accela 600 LC pump, and an Accela 80 Hz photo diode array detector (DAD) (Thermo Fisher Scientific, San Jose, CA, USA). Each sample was prepared in methanol:water (1:1, v/v) and filtered through a 0.2 μm nylon syringe filter. […] The mobile phase was composed of acetonitrile (A) and water:acetonitrile (99:1, v/v) (B), both with 0.1 % of formic acid. The gradient elution was performed as follows: 0–1min: 99% B; 1–17 min: 99-73% B, 17–20 min: 73-0% B, 20–25 min: 0–99% B, followed by re-equilibration of the column at 99% B for 4 min.

A short description of series [2]: Simulation of intestinal absorption using a dialysis membrane (3 kDa) after in vitro SGD.
From the text: HPLC-grade methanol, water, and acetonitrile were supplied by Fisher Scientific Chemicals. The enzymes α-amylase (A1031), pepsin from porcine stomach mucosa (P7012), pancreatin from porcine pancreas (P7545), and bile salts (B863) were purchased from Sigma-Aldrich (Taufkirchen, Germany). The rabbit gastric extract (RGE15) with gastric lipase activity was purchased from Lipolytech (Marseille, France). The ethanol was purchased from Merck (Algés, Portugal). A dialysis membrane with a molecular pore size of 3 kDa was purchased from Spectra/Pro (Spectrum Lab, Breda, Netherlands).
as §1
Furthermore, to determine the intestinal absorption, the aliquots collected inside the dialysis membrane were analyzed. The concentration of these samples (from inside of the membrane) corresponds to the amount of each PC that has not passed through to the outside of the membrane.
as §2

The test system of a further series is Caco-2 cell monolayers. The note with it: cited from earlier work.
Setting [3] is: controls (without enzymes), gastric phase.
Where [4] appears, read: controls (without enzymes), initial solution.
Setting [5] is: controls (without enzymes), intestinal phase.
[6] abbreviates: controls (without enzymes), oral phase.
The mark [7] stands for this setting: samples with enzymes, after gastric digestion pH 3.0.
Setting [8] is: samples with enzymes, after intestinal digestion pH 7.0.
The mark [9] stands for this setting: samples with enzymes, gastric phase.
Where [10] appears, read: samples with enzymes, intestinal phase.
Where [11] appears, read: samples with enzymes, oral phase.
Where [12] appears, read: samples, initial ethanol:water (15% v/v) solution.

Where “and” joins values, the source holds several entries; their conditions need not be identical. Equal entries are not always repeated. Where two headings read alike, the source gives them in different places. Marks after values point to notes of the source that are not given here.

Turning to `O=C(CCc1ccc(O)cc1)c1c(O)cc(O)cc1O` [PH, phloretin], the “Bioaccessibility (%), oral phase (O)” value in series [1] (2 min) is 96.46 ± 10.69^ a %; in series [1] (setting [6]), 111.74% and 111.74 ± 7.23^ a %; in series [1] (setting [11]), 96.46%. Besides, the “Bioaccessibility (%), gastric phase (G)” value is 91.73% and 91.73 ± 13.24 ^a,b % in series [1] (setting [3]); 72.87 ± 7.62 ^a,b % in series [1] (setting [9]). Moreover, the “Concentration, gastric phase (G)” value in series [1] (setting [3]) was 264.55 ± 38.18 µg/mL; in series [1] (setting [7]) it was 210.15 ± 21.97 µg/mL. The “Concentration, initial solution (IS)” value in series [1] (setting [4]) and in series [1] (setting [12]) was 288.39 µg/mL throughout. In addition, the “Bioaccessibility (%), initial solution (IS)” value is 100 ^a,b % in series [1] (setting [4]) and 100^ a % in series [1] (samples, initial solution). In addition, the “Bioaccessibility (%), intestinal phase (I)” value in series [1] (setting [5]) is 58.91% and 58.91 ± 16.19 ^b %; in series [1] (setting [10]) it was 51.55% and 51.55± 11.12 ^b %. Moreover, the “Concentration, intestinal phase (I)” value is 169.91 ± 46.69 µg/mL in series [1] (setting [5]) and 148.67 ± 32.07 µg/mL in series [1] (setting [8]). The “Concentration, oral phase (O)” value in series [1] (setting [6]) was 322.24 ± 20.85 µg/mL; in series [1] (samples with enzymes, after oral digestion) it was 278.19 ± 30.82 µg/mL. For the same compound, the entries for the “Concentration, dialysis phase (D)” value in series [2] and in series [2] (pig) were 17.18 ± 2.01 µg/mL and 26.35 ± 10.09 µg/mL, respectively. The “permeability class from Papp, apical-to-basolateral direction” value with Caco-2 cell monolayers (Caco-2 monolayers) is on record as “low-permeable”.
As for `C[C@@H]1O[C@@H](O[C@H]2[C@H](Oc3cc(O)c4c(c3)O[C@H](c3ccc(O)cc3)CC4=O)O[C@H](CO)[C@@H](O)[C@@H]2O)[C@H](O)[C@H](O)[C@H]1O` [NARN, naringin], the results for the “Bioaccessibility (%), oral phase (O)” value in series [1] (2 min), in series [1] (setting [6]) and in series [1] (setting [11]) were 133.20 ± 16.03^ a %, 128.18 ± 14.55^ a % and 133.2%, respectively. In addition, the entries for the “Concentration, oral phase (O)” value in series [1] (2 min) and in series [1] (setting [6]) were 334.93 ± 40.32 µg/mL and 322.30 ± 36.59 µg/mL, respectively. In addition, the “Bioaccessibility (%), gastric phase (G)” value in series [1] (setting [3]) is 132.25 ± 6.73^ a %; in series [1] (setting [9]), 145.2% and 145.22 ± 28.38^ a %. For the same compound, the results for the “Concentration, gastric phase (G)” value in series [1] (setting [3]) and in series [1] (setting [7]) were 332.53 ± 16.91 µg/mL and 365.14 ± 71.37 µg/mL, respectively. In addition, the “Concentration, initial solution (IS)” value in series [1] (setting [4]) and in series [1] (setting [12]) was 251.44 µg/mL each time. In addition, the “Bioaccessibility (%), initial solution (IS)” value in series [1] (setting [4]) is 100 ^a %; in series [1] (samples, initial solution), 100 ^a %. Moreover, the “Concentration, intestinal phase (I)” value is 319.15 ± 27.85 µg/mL in series [1] (setting [5]) and 351.21 ± 53.27 µg/mL in series [1] (setting [8]). Further, the “Bioaccessibility (%), intestinal phase (I)” value in series [1] (setting [10]) is 139.68% and 139.68 ± 21.19^ a %. Further, the “Concentration, dialysis phase (D)” value in series [2] was 4.46 ± 0.44 µg/mL; in series [2] (pig), 17.29 ± 1.75 µg/mL. Further, the “Papp value of apical to basolateral direction” value with Caco-2 cell monolayers (Caco-2, ref Tourniaiere et al. (2005)) is on record as “low”.
